The source of these data is paper PMC10688702, “The indole motif is essential for the antitrypanosomal activity of N^5-substituted paullones” (PLOS ONE, 2023).

Like-named read-outs stand apart in the source and are kept apart here.

By EC50 is commonly meant the concentration giving half of the maximal effect. For orientation: viability means a per cent measure of how many cells are alive, often set against a control.

Data set [1] has as its target trypanothione synthetase of L. infantum (LiTryS) (Leishmania infantum, UniProt A4I2Z3). In words: TryS activity screening assay on recombinant LiTryS. Format: biochemical. The conditions noted are these: read-out: LiTryS activity [% at 30 μM]. As to the method:
(§1) TryS from different trypanosomatids was produced in recombinant form with an N-terminal His-tag. The constructs pET-15b TbTryS and pET-28c(+)LiTryS were used to express TryS of T. b. brucei 427 (MITat1.4, GenBank accession protein id CAC87573.1), and L. infantum JPCM5 (GenBank accession protein id CAM69145.1). E. coli strain BL21 (DE3) served as the expression host. For TbTryS, the cells were cultured in a medium based in Terrific Broth and induction with isopropyl 1-thio-β-D-galactopyranoside (IPTG), while for LiTryS, the cells were cultured in ZYM-5052 auto-induction medium. For a detailed description of the expression, see Benítez et al.. The purification was performed by immobilised metal affinity chromatography in a HisTrap Fast Flow column (GE Healthcare) followed by size exclusion chromatography. […] The fractions containing recombinant TryS with ≥95% purity were pooled and concentrated to >10 mg protein/mL using a 10 kDa cut-off Amicon filter (Millipore, Billerica, CA). Glycerol was added at a final concentration of 40% (v/v). The samples were stored at -80°C. Enzyme purity and activity were assessed by SDS-PAGE (12%) under reducing conditions and by the end-point TryS assay (see TryS activity screening assay), respectively. Protein concentration was determined using the bicinchoninic acid assay with bovine serum albumin as standard. The protocols yielded 25–30 mg TbTryS or LiTryS per litre of culture medium and homogeneous specific activity.
(§2) For all TryS, ATP was used at 150 μM because of a high background signal at higher concentrations and Spd fixed at 2 mM, in agreement with the intracellular levels calculated from data reported in the literature for trypanosomatids. GSH was adjusted to 0.05 and 0.25 mM for TbTryS and LiTryS, respectively, to avoid substrate inhibition or to approach physiological concentrations. […] Microtiter plate wells were loaded with 5 μL of the test compound, DMSO (reaction control) or a TryS specific inhibitor (inhibition control) and 40 μL of MM solution. The reactions were then started by adding 5 μL of TryS (2 and 3*10^−5 μmol*min^-1*mL^-1 for LiTryS and TbTryS, respectively) and stopped after 15 min with 200 μL BIOMOL® GREEN reagent (Enzo Life Sciences). The compounds used as inhibition control were added at concentrations that inhibited 50% TryS activity: 30 μM and 150 nM MOL2008 for TbTryS and LiTryS, respectively. Blanks were prepared for each condition by adding 5 μL of screening reaction buffer instead of the enzyme. The TryS activity is calculated as follows: TrySactivity%=A650nmCi-A650nmCiB/A650nmE-A650nmEB*100%
(§3) A650 nm Ci is the mean absorbance at 650 nm for the reaction test with compound I (Ci), A650 nm CiB is the mean absorbance at 650 nm for the blank control with compound I (CiB), A650 nm E is the mean absorbance at 650 nm for the reaction control with DMSO (E) and A650 nm EB is the mean absorbance at 650 nm for the blank control with DMSO (EB). The errors were expressed as 2 standard deviations (SD), SD estimated as σ^n−1.

The subject of data set [2] is trypanothione synthetase of T. b. brucei (TbTryS). In words: TryS activity screening assay on recombinant TbTryS. Format: biochemical. The conditions noted are these: % activity at 30 μM compound, errors 2 SD. As to the method:
as §1, §2, §3

Data set [3] relates to bloodstream form of T. b. brucei strain 427. Briefly: Viability assay for T. b. brucei (whole parasite, bioluminescence). To be noted: 24 h; for T. b. brucei (BS) proliferation [% at 10 μM]: 10 μM compound; for EC50: read-out: T. b. brucei (BS) [EC50. Format: cell-based. How it is done:
Viability assay for T. b. brucei. The bloodstream form of the monomorphic T. b. brucei strain 427, cell line 5141313, constitutively and stably expressing an ectopic copy of the Photinus pyralis red-shifted luciferase, was cultured in vitro with HMI-9 medium, supplemented with 10% fetal bovine serum, 10 U/mL penicillin (Gibco), 10 μg/mL streptomycin (Gibco), 0.2 μg/mL bleomycin (Jena Bioscience), 4 μg/mL G418 disulfate salt (Sigma-Aldrich) and 0.2 μg/mL puromycin (Invitrogen), inside a humidified incubator (Thermo Fisher Scientific) with controlled temperature (37°C) and CO2 (5%) in a 25 or 75 cm^2 vented-cap culture-flask. The anti-trypanosomal activity of compounds was evaluated in a 96-well culture plate containing 2.2 μL/well DMSO (negative control) or compounds dissolved in DMSO (1% final concentration), and 220 μL/well of a suspension of 1 × 10^5 parasites/mL. The plates were incubated at 37°C and 5% CO2 for 24 h. Next, each well was transferred to a 96-well black plate, and 20 μL of a solution containing d-luciferin (1.5 mg/mL in PBS glucose 1% w/v) and Triton X-100 (0.05% v/v) was added. Bioluminescence signal was measured in a LUMIstar OPTIMA Microplate luminometer using the following settings: 10 s shaking, 5 s/well acquisition, 0.2 s measurement delay, maximum gain, and 37°C. For the bioluminescence assay, parasite viability was calculated according to the following formula: parasiteviability%=BLcpd-BLblank/BLneg-BLblank*100%
BL refers to the mean of bioluminescence signal corresponding to the tested compound (cpd), the blank (blank, complete media containing 1% v/v DMSO), or the negative control (neg, parasites treated with 1% v/v DMSO). EC50 values were determined from concentration-response curves fitted to a four-parameter sigmoid equation using the GraphPad Prism software (version 6.0). All errors are expressed as one SD, estimated as σ^n-1. For a detailed explanation of the protocol, see Dibello et al..

Data set [4] concerns murine macrophages J774.A1. Briefly: Cytotoxicity assays on murine macrophages (WST-1). Format: cell-based. The conditions noted are these: error 1 SD; for Macrophage toxicity [% at 30 μM]: % cell death at 30 μM. As to the method: Cytotoxicity assays on murine macrophages. Murine macrophages from the cell line J774.A1 (ATCC® TIB-67TM) were cultivated under a humidified 5% CO2/95% air atmosphere at 37°C in Dulbecco’s modified Eagle’s medium (DMEM) supplemented with 10% (v/v) FBS, 10 U/mL penicillin and 10 μg/mL streptomycin. The experimental protocol for the determination of EC50 values was identical as described by Demoro et al. 2012 [71], with the following change: 200 μL/well of a cell suspension at 6 × 10^4 cells per mL was added in a 96-well culture plate and washed with 150 μL of DMEM. The cytotoxicity of the compounds was evaluated in triplicate using the WST-1 reagent (Roche). The control treatment included cells cultured in the presence of DMSO 1% (v/v). Absorbance at 450 nm (Ai 450 nm), corresponding to the formazan dye produced by metabolically active cells, was measured with an EL 800-microplate reader. The corrected absorbance values at 450 nm (Ai c 450 nm) were obtained by subtracting the corresponding absorbance value at 630 nm (Ai 630 nm) and the blank average (Ablank 450 nm): Aic450nm=Ai450nm-Ai630nm-Ablank450nm
Cell viability (%), with the number of viable cells proportional to the absorbance, was calculated as follows: cellviability%=Aic450nm/Anegativecontrolc450nm*100%
Ai c 450 nm refers to an absorbance obtained from cells treated with compound I at a specific concentration (i) and Anegative control c 450 nm refers to an absorbance obtained from cells in the DMSO-treated control (negative control). The errors were calculated using error propagations and are expressed as one SD, estimated as σ^n−1.
A general note: Tetrazolium dyes change colour on reduction, which living cells bring about.

Data set [5] relates to L. infantum amastigotes (intracellular, in J774.A1 macrophages). In words: Viability assay for L. infantum amastigotes. Format: cell-based. The conditions noted are these: Leishmania infantum, J774.A1, 24 h, read-out: L. infantum amastigote viability [% at 20 μM]. How it is done:
Viability assay for L. infantum amastigotes. L. infantum promastigotes from the reference strain MHOM/MA/67/ITMAP263, stably transfected with a vector encoding a red-shifted luciferase gene (RE9HLUC; Branchini et al.; Benítez et al.) were grown in fresh complete RPMI medium (RPMI basic medium containing 25 mM HEPES, 10% v/v iFBS, 100 U/mL penicillin, 100 μg/mL streptomycin and 15 μg/mL hygromycin B) at 28°C in sealed culture flasks. Metacyclic promastigotes were obtained by a negative selection procedure using peanut agglutinin and used to infect murine macrophages (cell line J774.A1) at a 1:10 ratio for macrophages (5×10^6 cells): parasites (5×10^7 cells). 200 μL of this suspension was added per well to a 96-well culture microplate, which was then incubated at 37°C for 24 h in a 5% CO2/95% air atmosphere incubator. […] The culture microplate was incubated in the CO2 incubator for additional 24 h. Next, the supernatant was removed and the microplate wells were washed with pre-warmed PBS (200 μL). […] All conditions were tested in triplicates and the percentage amastigote viability was calculated as described for infective T. b. brucei, with errors expressed as one SD, estimated as σ^n-1.
A macrophage cell density correction factor based on the incorporation of propidium iodide was calculated and applied to normalise amastigote viability related to host cell density in the well. For a detailed explanation of the protocol, see Benítez et al..

Sequence of trypanothione synthetase of L. infantum (LiTryS) (A4I2Z3 entry or part of it): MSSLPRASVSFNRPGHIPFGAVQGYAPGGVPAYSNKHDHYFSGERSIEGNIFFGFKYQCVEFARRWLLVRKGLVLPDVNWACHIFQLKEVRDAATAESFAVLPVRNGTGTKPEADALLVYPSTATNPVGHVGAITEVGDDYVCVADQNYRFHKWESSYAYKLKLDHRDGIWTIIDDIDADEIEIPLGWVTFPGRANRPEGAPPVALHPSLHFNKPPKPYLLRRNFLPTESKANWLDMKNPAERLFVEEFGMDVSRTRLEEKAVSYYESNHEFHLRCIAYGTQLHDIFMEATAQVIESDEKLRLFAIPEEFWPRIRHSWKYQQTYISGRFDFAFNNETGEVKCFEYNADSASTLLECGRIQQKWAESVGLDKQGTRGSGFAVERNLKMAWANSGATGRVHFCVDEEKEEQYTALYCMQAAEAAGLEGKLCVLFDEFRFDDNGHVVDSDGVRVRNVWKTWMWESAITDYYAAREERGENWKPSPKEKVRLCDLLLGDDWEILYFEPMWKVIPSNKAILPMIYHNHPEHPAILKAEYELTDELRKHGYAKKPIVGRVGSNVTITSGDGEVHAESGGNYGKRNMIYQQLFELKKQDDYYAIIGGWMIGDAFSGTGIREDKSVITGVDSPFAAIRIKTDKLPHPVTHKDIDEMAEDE

Consider `CN(CCNC(=O)CN1C(=O)Cc2c([nH]c3ccc(I)cc23)-c2ccc(Cl)cc21)C(=O)OC(C)(C)C` [10a, tert-Butyl {2-[2-(3-chloro-9-iodo-6-oxo-7,12-dihydrobenzo[2,3]azepino[4,5-b]indol-5(6H)-yl)acetamido]ethyl}(methyl)carbamate], for which, in data set [1], the activity at 30 µM amounted to 38.3 ± 4.8%. The “TbTryS activity [% at 30 μM]” value in data set [2] is 90.2 ± 13.2%. Besides, the “T. b. brucei (BS) proliferation [% at 10 μM]” value (from here on “T. b. brucei … [% at 10 μM]”) in data set [3] is on record as 0.0 ± 1.2%. In addition, the half-maximal effective concentration (EC50) in data set [3] (Trypanosoma brucei) turned out to be 5.3 ± 1.3 µM. Besides, in data set [4] (% cell death at 60 μM), the “Macrophage toxicity [% at stated conc.]” value stood at 75.9 ± 9.9%.

As to `CN(CCNC(=O)CN1C(=O)Cc2c([nH]c3ccc(Cl)cc23)-c2ccc(Cl)cc21)C(=O)OC(C)(C)C` [10b, tert-Butyl {2-[2-(3,9-dichloro-6-oxo-7,12-dihydrobenzo[2,3]azepino[4,5-b]indol-5(6H)-yl)acetamido]ethyl}(methyl)carbamate], the activity at 30 µM in data set [1] is 35.4%. Also, in data set [2], the “TbTryS activity [% at 30 μM]” value was found to be 94.2 ± 17.1%. For the same molecule, the “T. b. brucei … [% at 10 μM]” value in data set [3] amounted to 0.0 ± 1.4%. The 50% effective concentration (EC50) in data set [3] (Trypanosoma brucei) was 1.9 ± 1.2 µM. Besides, the “Macrophage toxicity [% at stated conc.]” value in data set [4] (% cell death at 60 μM) was 47.9 ± 4.8%.

In the case of `CC(C)(C)OC(=O)CN1C(=O)Cc2ccccc2-c2ccccc21` [compound 18, tert-Butyl 2-(6-oxo-6,7-dihydro-5H-dibenzo[b,d]azepin-5-yl)acetate], the activity at 30 µM in data set [1] turned out to be 99.4 ± 3%. Moreover, the “Macrophage toxicity [% at 30 μM]” value in data set [4] was determined as 60%.

With `CN(CCNC(=O)CN1C(=O)Cc2c([nH]c3ccc(C(F)(F)F)cc23)-c2ccc(Cl)cc21)C(=O)OC(C)(C)C` [10c, tert-Butyl {2-[2-(3-chloro-6-oxo-9-trifluoromethyl-7,12-dihydrobenzo[2,3]azepino[4,5-b]indol-5(6H)-yl)acetamido]ethyl}(methyl)carbamate], the activity at 30 µM in data set [1] stood at 43.2 ± 9.1%. For the same molecule, the “TbTryS activity [% at 30 μM]” value in data set [2] is reported as 95.2 ± 13.2%. Further, the “T. b. brucei … [% at 10 μM]” value in data set [3] was determined as 0.0 ± 1.0%. The EC50 is approximately 12 µM in data set [3] and 11.6 ± 1.8 µM in data set [3] (Trypanosoma brucei). Further, the “Macrophage toxicity [% at stated conc.]” value in data set [4] (% cell death at 100 μM) stood at 94.9 ± 7.1%.

`CC(C)(C)OC(=O)N1CCN(CCNC(=O)CN2C(=O)Cc3ccccc3-c3ccccc32)CC1` [4b, tert-Butyl 4-{2-[2-(6-oxo-6,7-dihydro-5H-dibenzo[b,d]azepin-5-yl)acetamido]ethyl}piperazine-1-carboxylate]: the activity at 30 µM in data set [1] was 103 ± 8.6%. In data set [5], the viability at 20 µM turned out to be 93.9 ± 6.6%. For the same molecule, the “Macrophage toxicity [% at 30 μM]” value in data set [4] amounted to 40%.
